Values of other authors as cited in patent US11253534B2, “Method of preventing COVID-19 infection” (priority 2020, dated 2022).

Details: in vivo

Q: For CCN(CCO)CCCC(C)Nc1ccnc2cc(Cl)ccc12 (stereo not shown) [hydroxychloroquine], which half-life is on record?
A: The half-life was “up to 32 days”.
